In paper PMC7180572, “5-Alkylamino-N-phenylpyrazine-2-carboxamides: Design, Preparation, and Antimycobacterial Evaluation” (Molecules, 2020):
Values after ≈ are worked out from the molar mass of the structure shown. Where two headings read alike, the source gives them in different places.

How the values were obtained:
[1] = tested on: Escherichia coli ATCC 25922, CCM 3954; assay: Antibacterial microdilution broth method (EUCAST); type: cell-based; conditions: read-out: MIC EC
[2] = tested on: Aspergillus flavus CCM 8363; assay: Antifungal microdilution broth method (EUCAST); type: cell-based; conditions: read-out: MIC AFla
[3] = tested on: Klebsiella pneumoniae ATCC 10031, CCM 4415; assay: Antibacterial microdilution broth method (EUCAST)
[4] = tested on: Acinetobacter baumanii ATCC 19606, DSM 30007; assay: Antibacterial microdilution broth method (EUCAST); type: cell-based; conditions: Acinetobacter baumannii
[5] = tested on: Trichophyton interdigitale ATCC 9533, CCM 8377; assay: Antifungal microdilution broth method (EUCAST); type: cell-based; conditions: read-out: MIC TI
[6] = tested on: Staphylococcus aureus methicillin resistant ATCC 43300, CCM 4750; assay: microbe, parasite or virus in culture; type: cell-based; conditions: ATCC 43300 / CCM 4750 / MRSA, read-out: MIC MRSA
[7] = tested on: Mycobacterium aurum DSM 43999 (ATCC 23366); assay: Microdilution broth, modified Microplate Alamar Blue Assay, whole cell growth inhibition; type: cell-based; conditions: Mycolicibacterium aurum, read-out: MIC Mycobacterium aurum
[8] = tested on: Candida tropicalis ATCC 750, CCM 8264; assay: Antifungal microdilution broth method (EUCAST); type: cell-based; conditions: read-out: MIC CT
[9] = tested on: Mycobacterium smegmatis DSM 43465 (ATCC 607); assay: Microdilution broth, modified Microplate Alamar Blue Assay, whole cell growth inhibition; type: cell-based; conditions: Mycolicibacterium smegmatis, read-out: MIC Mycobacterium smegmatis
[10] = tested on: Candida albicans ATCC 24433, CCM 8320; assay: Antifungal microdilution broth method (EUCAST); type: cell-based
[11] = tested on: Aspergillus fumigatus ATCC 204305; assay: Antifungal microdilution broth method (EUCAST); type: cell-based; conditions: read-out: MIC AF
[12] = tested on: Candida parapsilosis ATCC 22019, CCM 8260; assay: Antifungal microdilution broth method (EUCAST); type: cell-based; conditions: Lodderomyces parapsilosis
[13] = tested on: Mycobacterium tuberculosis H37Ra ITM-M006710 (ATCC 9431); assay: Microdilution broth, modified Microplate Alamar Blue Assay, whole cell growth inhibition; type: cell-based; conditions: Mycobacterium tuberculosis; in vitro, Middlebrook 7H9 broth, resazurin; read-out: MIC Mtb H37Ra
[14] = tested on: Enterococcus faecalis ATCC 29212, CCM 4224; assay: Antibacterial microdilution broth method (EUCAST); type: cell-based; conditions: read-out: MIC EF
[15] = tested on: Pseudomonas aeruginosa ATCC 27853, CCM 3955; assay: Antibacterial microdilution broth method (EUCAST); type: cell-based; conditions: read-out: MIC PA
[16] = tested on: Staphylococcus aureus spp.aureus ATCC 29213, CCM 4223; assay: Antibacterial microdilution broth method (EUCAST); type: cell-based; conditions: read-out: MIC SA
[17] = tested on: Staphylococcus epidermidis ATCC 12228, CCM 4418; assay: Antibacterial microdilution broth method (EUCAST); type: cell-based; conditions: read-out: MIC SE
HepG2 cells = assay: HepG2 cytotoxicity, CellTiter 96 (MTS) assay; type: cell-based, human; conditions: for IC50: Homo sapiens, HepG2, 24 h, read-out: HepG2 IC50; for SI, selectivity index: IC50 (HepG2)/MIC against Mtb H37Ra (in µM)
[18] = tested on: Candida krusei ATCC 6258, CCM 8271; assay: Antifungal microdilution broth method (EUCAST); type: cell-based; conditions: Pichia kudriavzevii
[19] = tested on: Absidia corymbifera CCM 8077 (Lichtheimia corymbifera); assay: Antifungal microdilution broth method (EUCAST); type: cell-based; conditions: read-out: MIC AC

Structure (SMILES): CCCCCCCCNc1cnc(C(=O)Nc2cccc(O)c2)cn1 [Compound 2f, N-(3-hydroxyphenyl)-5-(octylamino)pyrazine-2-carboxamide]
- MIC ([1]; 24 h): > 125 µM
- MIC ([1]; 48 h): > 125 µM
- MIC ([2]; CCM8363, 24 h): > 125 µM
- MIC ([2]; CCM8363, 48 h): > 125 µM
- MIC KP ([3]; 24h): > 125 µM
- MIC KP ([3]; 48h): > 125 µM
- MIC ([4]; 24h): > 125 µM
- MIC ([4]; 48h): > 125 µM
- MIC ([5]; 72 h): > 125 µM
- MIC ([5]; 120 h): > 125 µM
- MIC ([6]; 24 h): > 125 µM
- MIC ([6]; 48 h): > 125 µM
- MIC [7]: ≥ 500 µg/mL
- MIC ([8]; 24 h): > 125 µM
- MIC ([8]; 48 h): > 125 µM
- MIC [9]: 250 µg/mL (≈ 730 µM)
- MIC ([10]; 24 h, read-out: MIC CA): > 125 µM
- MIC ([10]; 48 h, read-out: MIC CA): > 125 µM
- MIC ([11]; ATCC204305, 24 h): > 125 µM
- MIC ([11]; ATCC204305, 48 h): > 125 µM
- MIC ([12]; 24 h, read-out: MIC CP): > 125 µM
- MIC ([12]; 48 h, read-out: MIC CP): > 125 µM
- MIC [13]: ≥ 500 µg/mL
- MIC ([14]; 24 h): > 125 µM
- MIC ([14]; 48 h): > 125 µM
- MIC ([15]; 72 h): > 125 µM
- MIC ([15]; 120 h): > 125 µM
- MIC ([16]; 24 h): > 125 µM
- MIC ([16]; 48 h): > 125 µM
- MIC ([17]; 24 h): > 125 µM
- MIC ([17]; 48 h): > 125 µM
- melting point: 223 to 225.9 °C
- IC50 (HepG2 cells): > 50 µM
- MIC ([18]; 24 h, read-out: MIC CK): > 125 µM
- MIC ([18]; 48 h, read-out: MIC CK): > 125 µM
- MIC ([19]; CCM8077, 24 h): > 125 µM
- MIC ([19]; CCM8077, 48 h): > 125 µM

Structure (SMILES): CCCNc1cnc(C(=O)Nc2ccc(O)cc2)cn1 [Compound 3a, N-(4-hydroxyphenyl)-5-(propylamino)pyrazine-2-carboxamide]
- MIC ([1]; 24 h): > 500 µM
- MIC ([1]; 48 h): > 500 µM
- MIC ([2]; CCM8363, 24 h): > 500 µM
- MIC ([2]; CCM8363, 48 h): > 500 µM
- MIC KP ([3]; 24h): > 500 µM
- MIC KP ([3]; 48h): > 500 µM
- MIC ([4]; 24h): > 500 µM
- MIC ([4]; 48h): > 500 µM
- MIC ([5]; 72 h): > 500 µM
- MIC ([5]; 120 h): > 500 µM
- MIC ([6]; 24 h): > 500 µM
- MIC ([6]; 48 h): > 500 µM
- MIC [7]: ≥ 500 µg/mL
- MIC ([8]; 24 h): > 500 µM
- MIC ([8]; 48 h): > 500 µM
- MIC [9]: ≥ 500 µg/mL
- MIC ([10]; 24 h, read-out: MIC CA): > 500 µM
- MIC ([10]; 48 h, read-out: MIC CA): > 500 µM
- MIC ([11]; ATCC204305, 24 h): > 500 µM
- MIC ([11]; ATCC204305, 48 h): > 500 µM
- MIC ([12]; 24 h, read-out: MIC CP): > 500 µM
- MIC ([12]; 48 h, read-out: MIC CP): > 500 µM
- MIC [13]: 15.6 µg/mL (≈ 57.4 µM)
- MIC ([14]; 24 h): > 500 µM
- MIC ([14]; 48 h): > 500 µM
- MIC ([15]; 72 h): > 500 µM
- MIC ([15]; 120 h): > 500 µM
- MIC ([16]; 24 h): > 500 µM
- MIC ([16]; 48 h): > 500 µM
- MIC ([17]; 24 h): > 500 µM
- MIC ([17]; 48 h): > 500 µM
- melting point: 209.3 to 215.6 °C
- IC50 (HepG2 cells): 410 µM
- SI, selectivity index (HepG2 cells): 7.18
- MIC ([18]; 24 h, read-out: MIC CK): > 500 µM
- MIC ([18]; 48 h, read-out: MIC CK): > 500 µM
- MIC ([19]; CCM8077, 24 h): > 500 µM
- MIC ([19]; CCM8077, 48 h): > 500 µM

Structure (SMILES): CCCCNc1cnc(C(=O)Nc2ccc(O)cc2)cn1 [Compound 3b, 5-(Butylamino)pyrazine-N-(4-hydroxyphenyl)-2-carboxamide]
- MIC ([1]; 24 h): > 500 µM
- MIC ([1]; 48 h): > 500 µM
- MIC ([2]; CCM8363, 24 h): > 250 µM
- MIC ([2]; CCM8363, 48 h): > 250 µM
- MIC KP ([3]; 24h): > 500 µM
- MIC KP ([3]; 48h): > 500 µM
- MIC ([4]; 24h): > 500 µM
- MIC ([4]; 48h): > 500 µM
- MIC ([5]; 72 h): > 250 µM
- MIC ([5]; 120 h): > 250 µM
- MIC ([6]; 24 h): > 500 µM
- MIC ([6]; 48 h): > 500 µM
- MIC [7]: ≥ 500 µg/mL
- MIC ([8]; 24 h): > 250 µM
- MIC ([8]; 48 h): > 250 µM
- MIC [9]: ≥ 500 µg/mL
- MIC ([10]; 24 h, read-out: MIC CA): 62.5 µM (≈ 17.9 µg/mL)
- MIC ([10]; 48 h, read-out: MIC CA): 62.5 µM (≈ 17.9 µg/mL)
- MIC ([10]; read-out: MIC CA (Candida albicans)): 62.5 µM (≈ 17.9 µg/mL)
- MIC ([11]; ATCC204305, 24 h): > 250 µM
- MIC ([11]; ATCC204305, 48 h): > 250 µM
- MIC ([12]; 24 h, read-out: MIC CP): 250 µM (≈ 71.6 µg/mL)
- MIC ([12]; 48 h, read-out: MIC CP): 250 µM (≈ 71.6 µg/mL)
- MIC ([12]; read-out: MIC CP (Candida parapsilosis)): 250 µM (≈ 71.6 µg/mL)
- MIC [13]: 31.2 µg/mL (≈ 109 µM)
- MIC ([14]; 24 h): > 500 µM
- MIC ([14]; 48 h): > 500 µM
- MIC ([15]; 72 h): > 500 µM
- MIC ([15]; 120 h): > 500 µM
- MIC ([16]; 24 h): > 500 µM
- MIC ([16]; 48 h): > 500 µM
- MIC ([17]; 24 h): > 500 µM
- MIC ([17]; 48 h): > 500 µM
- melting point: 208 to 211.4 °C
- IC50 (HepG2 cells): 378 µM
- SI, selectivity index (HepG2 cells): 3.46
- MIC ([18]; 24 h, read-out: MIC CK): > 250 µM
- MIC ([18]; 48 h, read-out: MIC CK): > 250 µM
- MIC ([18]; read-out: MIC CK (Candida krusei)): > 250 µM
- MIC ([19]; CCM8077, 24 h): > 250 µM
- MIC ([19]; CCM8077, 48 h): > 250 µM
